Test system: yeast genes (level of expressed mRNA)
Experiment: DNA chip analysis of expressed mRNA of yeast genes after 2 h culture with a toxic chemical substance
Format: cell-based, Saccharomyces cerevisiae S288C
Details: for The level of expressed mRNA in the presence of chemical substance/ in its absence, gene YDL078C: yeast gene YDL078C; for The level of expressed mRNA in the presence of chemical substance/ (ratio to absence of chemical substance): stress protein genes, DNA chip
Protocol: Yeast (Saccharomyces cerevtisiae S288C (α SUC2mal mel gap2 CUP1)) were cultured at 25° C. on YPD medium (yeast extract 1%, polypepton 2%, glucose 2%). One of toxic chemical substances was added to the cell at logarithmic growth phase, and the cell was further cultured for two hours. Cell was cultured without any chemical substance in the same condition, and was used as control. Concentrations of the chemical substances were defined to inhibit the growth of the yeast but not lead to death.
After the completion of cultivation, the culture was centrifuged to collect the cells. To the cells, sodium acetate buffer (50 mM sodium acetate, 10 mM EDTA, 1% SDS) was added, and the mixture was shaken at 65° C. for five minutes, followed by returning to room temperature, and obtaining the supernatant, which procedure was repeated two times. To the supernatant, ½ amount of a solution of phenol/chloroform was added, and the mixture was centrifuged to give a supernatant, which was added with an equal amount of chloroform, and the mixture was centrifuged to give a supernatant. To the supernatant, an equal amount of isopropanol containing 0.3 M sodium acetate was added, and the mixture was allowed to stand at room temperature for 30 minutes, after which the mixture was centrifuged to give a sediment of the whole RNAs. Seventy % ethanol was added to the sediment, and the mixture was again centrifuged to give a sediment, which was then dried and dissolved in water. mRNA was isolated from the whole RNAs as followings. In view of the fact that a poly A chain is attached to the 3′ terminus of mRNA, a polynucleotide having a poly T structure which was immobilized on the surface of latex beads was used to trap the mRNA, and then the mRNA was washed and eluted with spine column (Oligotex-dT30<Super>mRNA Purification Kit, Takara). Reverse transcription of the mRNA was conducted with a reverse transcriptase (Super Script II Reverse Transcriptase; catalogue No. 18064-014, GibcoBRL) using fluorescence-labeled nucleotides to give cDNAs that were introduced with Cy3-dUTP or Cy5-dUTP during the reverse transcription.
The labeled cDNAs were dissolved in TE buffer (10 mM Tris-HCl/1 mM EDTA, pH8.0), and the solution was dropped on the DNA chip containing the whole genes of yeast (DNA Chip Research Inc. Japan) so that the cDNAs were hybridized on the DNA chip at 65° C. for over 12 hours. The fluoresces intensity of the DNA chip was read with a scanner, and the ratio relative to the fluorescence intensity resulting from the absence of chemical substance was estimated as the following, which is shown in Tables 1 to 9: [formula]
In the Tables, “Intensity” indicated in the rightmost column is a value of the level of expressed mRNA of each gene in control cells as divided by the average level of the expressions of the whole genes.

SMILES: S=C([S-])NCCNC(=S)[S-].[Zn+2] [(11), zinc N,N′-ethylenebis(dithiocarbamate)]
- The level of expressed mRNA in the presence of chemical substance/ in its absence, gene YDL078C (energy system protein genes, 2 h culture with the chemical, ratio to control without chemical): 1.7
- The level of expressed mRNA in the presence of chemical substance/ in its absence, gene YDL078C (ratio of DNA chip fluorescence intensity to that without chemical substance): 1.7
- The level of expressed mRNA in the presence of chemical substance/ (in its absence), gene YDL215C (yeast gene YDL215C, ratio of DNA chip fluorescence intensity to that without chemical substance): 0.8
- The level of expressed mRNA in the presence of chemical substance/The level of expressed mRNA in the absence of chemical substance (yeast gene YDL238C): 1.1
- The level of expressed mRNA in the presence of chemical substance/The level of expressed mRNA in the absence of chemical substance (yeast gene YDR055W): 2.2
- The level of expressed mRNA in the presence of chemical substance/ (in its absence), gene YDR073W (yeast gene YDR073W, ratio of DNA chip fluorescence intensity to that without chemical substance): 1.0
- The level of expressed mRNA in the presence of chemical substance/ in its absence, gene YDR079W (yeast gene YDR079W, energy system protein genes, 2 h culture with the chemical, ratio to control without chemical): 1.3
- The level of expressed mRNA in the presence of chemical substance/ (ratio to absence), gene YDR079W (yeast gene YDR079W, mitochondria-located protein genes, 2 h culture with chemical): 1.3
- The level of expressed mRNA in the presence of chemical substance/The level of expressed mRNA in the absence of chemical substance (yeast gene YDR084C): 0.7
- The level of expressed mRNA in the presence of chemical substance/The level of expressed mRNA in the absence of chemical substance (yeast gene YDR085C): 1.7
- The level of expressed mRNA in the presence of chemical substance/The level of expressed mRNA in the absence of chemical substance (yeast gene YDR104C): 1.0
- The level of expressed mRNA in the presence of chemical substance/The level of expressed mRNA in the absence of chemical substance (yeast gene YDR115W): 1.2
- The level of expressed mRNA in the presence of chemical substance/The level of expressed mRNA in the absence of chemical substance (yeast gene YDR259C): 1.2
- The level of expressed mRNA in the presence of chemical substance/ (in its absence), gene YDR297W (yeast gene YDR297W, ratio of DNA chip fluorescence intensity to that without chemical substance): 1.4
- The level of expressed mRNA in the presence of chemical substance/The level of expressed mRNA in the absence of chemical substance (yeast gene YDR315C): 1.1
- The level of expressed mRNA in the presence of chemical substance/The level of expressed mRNA in the absence of chemical substance (yeast gene YDR358W): 1.0
- The level of expressed mRNA in the presence of chemical substance/ (ratio to absence), gene YDR377W (yeast gene YDR377W, mitochondria-located protein genes, 2 h culture with chemical): 1.4
- The level of expressed mRNA in the presence of chemical substance/ (in its absence), gene YDR387C (yeast gene YDR387C, ratio of DNA chip fluorescence intensity to that without chemical substance): 2.0
- The level of expressed mRNA in the presence of chemical substance/The level of expressed mRNA in the absence of chemical substance (yeast gene YDR388W): 1.6
- The level of expressed mRNA in the presence of chemical substance/The level of expressed mRNA in the absence of chemical substance (yeast gene YDR432W): 0.6
- The level of expressed mRNA in the presence of chemical substance/The level of expressed mRNA in the absence of chemical substance (yeast gene YDR481C): 1.2
- The level of expressed mRNA in the presence of chemical substance/The level of expressed mRNA in the absence of chemical substance (yeast gene YDR510W): 1.6
- The level of expressed mRNA in the presence of chemical substance/ (ratio to absence of chemical substance) (yeast gene YEL039C): 1.7
- The level of expressed mRNA in the presence of chemical substance/The level of expressed mRNA in the absence of chemical substance (yeast gene YEL042W): 1.6
- The level of expressed mRNA in the presence of chemical substance/The level of expressed mRNA in the absence of chemical substance (yeast gene YEL066W): 1.9
- The level of expressed mRNA in the presence of chemical substance/ (in its absence), gene YER015W (yeast gene YER015W, ratio of DNA chip fluorescence intensity to that without chemical substance): 1.0
- The level of expressed mRNA in the presence of chemical substance/The level of expressed mRNA in the absence of chemical substance (yeast gene YER039C): 1.2
- The level of expressed mRNA in the presence of chemical substance/ (ratio to absence of chemical substance) (yeast gene YER057C): 1.8
- The level of expressed mRNA in the presence of chemical substance/The level of expressed mRNA in the absence of chemical substance (yeast gene YER107C): 0.7
- The level of expressed mRNA in the presence of chemical substance/The level of expressed mRNA in the absence of chemical substance (yeast gene YER130C): 0.9
- The level of expressed mRNA in the presence of chemical substance/The level of expressed mRNA in the absence of chemical substance (yeast gene YFL028C): 1.3
- The level of expressed mRNA in the presence of chemical substance/The level of expressed mRNA in the absence of chemical substance (yeast gene YFL043C): 1.1
- The level of expressed mRNA in the presence of chemical substance/ (in its absence), gene YGL035C (yeast gene YGL035C, ratio of DNA chip fluorescence intensity to that without chemical substance): 1.3
- The level of expressed mRNA in the presence of chemical substance/ (in its absence), gene YGL115W (yeast gene YGL115W, ratio of DNA chip fluorescence intensity to that without chemical substance): 1.0
- The level of expressed mRNA in the presence of chemical substance/ (ratio to absence of chemical substance) (yeast gene YGL115W): 1.0
- The level of expressed mRNA in the presence of chemical substance/The level of expressed mRNA in the absence of chemical substance (yeast gene YGL158W): 0.2
- The level of expressed mRNA in the presence of chemical substance/ (ratio to absence), gene YGL187C (yeast gene YGL187C, mitochondria-located protein genes, 2 h culture with chemical): 0.7
- The level of expressed mRNA in the presence of chemical substance/ (in its absence), gene YGL205W (yeast gene YGL205W, ratio of DNA chip fluorescence intensity to that without chemical substance): 0.4
- The level of expressed mRNA in the presence of chemical substance/The level of expressed mRNA in the absence of chemical substance (yeast gene YGL229C): 1.1
- The level of expressed mRNA in the presence of chemical substance/ in its absence, gene YGR062C (yeast gene YGR062C, energy system protein genes, 2 h culture with the chemical, ratio to control without chemical): 1.6
- The level of expressed mRNA in the presence of chemical substance/ (ratio to absence), gene YGR062C (yeast gene YGR062C, mitochondria-located protein genes, 2 h culture with chemical): 1.6
- The level of expressed mRNA in the presence of chemical substance/ (in its absence), gene YGR096W (yeast gene YGR096W, ratio of DNA chip fluorescence intensity to that without chemical substance): 0.8
- The level of expressed mRNA in the presence of chemical substance/The level of expressed mRNA in the absence of chemical substance (yeast gene YGR136W): 1.3
- The level of expressed mRNA in the presence of chemical substance/The level of expressed mRNA in the absence of chemical substance (yeast gene YGR189C): 1.5
- The level of expressed mRNA in the presence of chemical substance/The level of expressed mRNA in the absence of chemical substance (yeast gene YGR213C): 1.6
- The level of expressed mRNA in the presence of chemical substance/The level of expressed mRNA in the absence of chemical substance (yeast gene YGR257C): 1.2
- The level of expressed mRNA in the presence of chemical substance/ (in its absence), gene YGR287C (yeast gene YGR287C, ratio of DNA chip fluorescence intensity to that without chemical substance): 1.5
- The level of expressed mRNA in the presence of chemical substance/ (in its absence), gene YGR288W (yeast gene YGR288W, ratio of DNA chip fluorescence intensity to that without chemical substance): 1.3
- The level of expressed mRNA in the presence of chemical substance/ (ratio to absence of chemical substance) (yeast gene YHL028W): 0.7
- The level of expressed mRNA in the presence of chemical substance/ (ratio to absence of chemical substance) (yeast gene YHL046C): 0.4
- The level of expressed mRNA in the presence of chemical substance/The level of expressed mRNA in the absence of chemical substance (yeast gene YHR004C): 0.8
- The level of expressed mRNA in the presence of chemical substance/The level of expressed mRNA in the absence of chemical substance (yeast gene YHR071W): 1.8
- The level of expressed mRNA in the presence of chemical substance/The level of expressed mRNA in the absence of chemical substance (yeast gene YHR139C): 3.5
- The level of expressed mRNA in the presence of chemical substance/The level of expressed mRNA in the absence of chemical substance (yeast gene YHR142W): 1.1
- The level of expressed mRNA in the presence of chemical substance/ (in its absence), gene YHR210C (yeast gene YHR210C, ratio of DNA chip fluorescence intensity to that without chemical substance): 1.5
- The level of expressed mRNA in the presence of chemical substance/ (in its absence), gene YIL006W (yeast gene YIL006W, ratio of DNA chip fluorescence intensity to that without chemical substance): 1.0
- The level of expressed mRNA in the presence of chemical substance/ (ratio to absence of chemical substance) (yeast gene YIL011W): 2.5
